Test results reported in patent US20260364080A1, “PYRAZOLO-PYRIMIDINONE COMPOUNDS FOR USE IN METHODS OF INHIBITING WEE1 A KINASE” (Acrivon Therapeutics, Inc., priority 2023, published 2026).

Tests used:
[1] = molecular target: T1, recombinant human Wee1A kinase (Homo sapiens, UniProt P30291); test: Wee1A kinase binding assay (LanthaScreen Eu time-resolved FRET); details: 30 nM tracer 178, 5 nM Wee1A kinase, 2 nM Eu-labeled antibody; 60 minutes at room temperature; read-out: Wee1A kinase Binding IC50
T1 construct: full length Wee1 kinase was expressed by baculovirus in insect cells; purchased Invitrogen PV3817; host or cells: insect cells (baculovirus)
T1 sequence (P30291 whole entry): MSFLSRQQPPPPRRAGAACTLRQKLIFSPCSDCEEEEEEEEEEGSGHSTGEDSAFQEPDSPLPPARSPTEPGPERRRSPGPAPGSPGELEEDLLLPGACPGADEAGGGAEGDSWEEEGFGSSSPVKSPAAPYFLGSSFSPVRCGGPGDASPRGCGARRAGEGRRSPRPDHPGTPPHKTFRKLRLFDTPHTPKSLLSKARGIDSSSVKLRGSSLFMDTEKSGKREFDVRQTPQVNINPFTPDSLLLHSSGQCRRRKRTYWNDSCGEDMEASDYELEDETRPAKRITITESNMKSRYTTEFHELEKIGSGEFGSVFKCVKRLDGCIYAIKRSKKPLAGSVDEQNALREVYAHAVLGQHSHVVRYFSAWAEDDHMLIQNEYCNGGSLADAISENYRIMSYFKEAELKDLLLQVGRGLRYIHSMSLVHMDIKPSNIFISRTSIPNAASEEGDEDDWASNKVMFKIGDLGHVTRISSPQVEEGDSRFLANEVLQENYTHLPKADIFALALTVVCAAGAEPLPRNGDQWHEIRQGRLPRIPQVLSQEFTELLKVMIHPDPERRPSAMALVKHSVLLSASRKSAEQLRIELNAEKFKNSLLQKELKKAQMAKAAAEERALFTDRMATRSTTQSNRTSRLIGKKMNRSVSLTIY
Method in brief: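 Full-length, baculovirus-expressed GST-tagged Wee1A (5 nM) was mixed with 2 nM Eu-anti-GST antibody, 30 nM kinase tracer 178 and compound (1% DMSO). Buffer was 50 mM HEPES pH 7.5, 10 mM MgCl2, 1 mM EGTA, 0.01% Brij-35, incubated 60 min at room temperature. TR-FRET 665/615 nm emission ratios from duplicates were curve-fitted.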

[2] = molecular target: T2, Myt1 kinase (recombinant PMYT-1) (Homo sapiens, UniProt Q99640); test: Myt1 kinase binding assay (LanthaScreen Eu Kinase Binding Assay); details: 3 nM tracer 178, 2.5 nM PMYT-1, 1 nM Eu-labeled antibody; read-out: Myt1 kinase Binding IC50
T2 construct: full length PMYT-1 was expressed by baculovirus in insect cells; purchased Invitrogen A30984; host or cells: insect cells (baculovirus)
T2 sequence (Q99640 1-499): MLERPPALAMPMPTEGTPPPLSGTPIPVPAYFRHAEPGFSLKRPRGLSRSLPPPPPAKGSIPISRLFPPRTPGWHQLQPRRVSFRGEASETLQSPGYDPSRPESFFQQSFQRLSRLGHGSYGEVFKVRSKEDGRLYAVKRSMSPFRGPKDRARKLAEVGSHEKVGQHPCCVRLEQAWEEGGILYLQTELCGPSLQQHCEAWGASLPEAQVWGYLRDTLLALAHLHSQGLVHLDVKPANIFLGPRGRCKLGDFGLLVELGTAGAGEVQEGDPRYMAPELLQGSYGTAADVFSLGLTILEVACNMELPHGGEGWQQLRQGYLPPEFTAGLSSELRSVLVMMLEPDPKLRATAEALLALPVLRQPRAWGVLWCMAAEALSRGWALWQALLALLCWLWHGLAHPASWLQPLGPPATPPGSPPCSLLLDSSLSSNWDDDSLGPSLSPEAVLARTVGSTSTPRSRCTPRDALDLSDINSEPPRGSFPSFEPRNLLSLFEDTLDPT
Method in brief: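 The binding affinity of compounds for Myt1 kinase was measured with a LanthaScreen Europium (Eu) Kinase Binding Assay, a time-resolved FRET format in which test compounds compete against a labeled kinase tracer, and the results were expressed as IC50 values describing compound binding to Myt1.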

[3] = molecular target: T3, Myt1 kinase (CDK1 Thr14 phosphorylation in DAOY medulloblastoma cells) (Homo sapiens, UniProt Q99640); test: AlphaLISA assay, Myt1 kinase target engagement (phospho-CDK1 Thr14) in DAOY cells; format: cell-based; details: 4 h treatment, read-out: CDK1 Thr14 Phosphorylation EC50
T3 construct: pCDK1 Thr14 AlphaLISA read-out
T3 sequence (Q99640 1-499): T2 sequence (Q99640 1-499)
Procedure: Each of an ACHN renal cell carcinoma cell line (ATCC) and a DAOY medulloblastoma cell line, and an A427 lung cancer line were cultured in Minimum Essential Medium Eagle supplemented with 10% fetal calf serum (Sigma), 1% Penicillin-Streptomycin and 10 mM HEPES buffer (HyClone). Cell cultures were kept in a humidified incubator at 37 °C and 5% CO2. Cells were routinely tested for Mycoplasma contamination.
For target engagement assessment of Myt1 kinase inhibition, quantification of Cdk1 phosphorylated on threonine 14 was detected using the AlphaLISA® SureFire® Ultra™ Human Phospho-CDK1 (Thr14) assay (Perkin Elmer). DAOY or ACHN cells were seeded into tissue culture treated 96-well plates (VWR) to a density of 10,000 or 20,000 cells per well respectively. 24 h post seeding cells were treated for 4 h with compounds at concentrations ranging from 7 to 5000 nM. Cells were washed with PBS and lysed in 50 μl AlphaLISA lysis buffer before freezing at −80 C. Ten ul of the lysate was transferred to 384 well plates and incubated with AlphaLISA donor and acceptor beads according to the manufacturer's instructions. Dose response curves and EC50 values were calculated and visualized using GraphPad Prism version 9. Target engagement for Myt1 kinase can also be measured using the same AlphaLISA assay in OVCAR3 cells, an ovarian cancer cell line. NIH:OVCAR-3 (OVCAR3) cells are cultured in RPMI-1640 medium supplemented with 0.01 mg/ml insulin, 20% FBS, 1% Penicillin-Streptomycin and 10 mM HEPES buffer. 14,000 cells per well are seeded into 96 well tissue culture plates in full medium. Twenty-four hours post seeding, cells are treated with compound for 4 hours at concentrations ranging from 0.017 nM to 1000 nM.

[4] = molecular target: T4, Wee1A kinase (CDK1 Tyr15 phosphorylation in ACHN renal cell carcinoma cells) (Homo sapiens, UniProt P30291); test: High-content imaging of pCdk1 Y15, Wee1A kinase target engagement in ACHN cells; format: cell-based; details: 4 h treatment, nuclear positivity for pCdk1 Y15 vs DMSO control, read-out: CDK1 Tyr15 Phosphorylation EC50
T4 construct: pCDK1 Tyr15 immunofluorescence read-out
T4 sequence (P30291 whole entry): as the sequence (P30291 whole entry) above
Method in brief: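 ACHN cells exposed to compound for 4 h over 7–5,000 nM or 0.3–200 nM, then fixed and immunostained for pCDK1 Y15 with DAPI nuclear counterstain. The percentage of pCdk1 Y15 nucleus-positive cells relative to DMSO control was imaged per well; EC50 from dose-response curves.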

ACHN cells = test: Cell Titer Glo viability assay, ACHN cells; format: cell-based; details: Homo sapiens, 144 h, absolute EC50
Method in brief: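 Cells grown in MEM with 10% FCS were seeded at 500 (A427), 400 (ACHN) or 250 (DAOY) per well and treated the next day with compound at 17 to 10 000 nM. Viability relative to untreated control was read at 144 h by CellTiter-Glo 2.0.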

IC50 [1] [nM]	IC50 [2] [nM]	EC50 [3] [nM]	EC50 [4] [nM]	EC50 (ACHN cells) [nM]	SMILES
< 10	< 20	200 to 500	< 100	≤ 100	C=CCn1c(=O)c2cnc(Nc3ccc(OCC4CC4)cc3)nc2n1-c1cccc(OC2CCNCC2)n1 [Compound 259, 2-allyl-6-((4-(cyclopropylmethoxy)phenyl)amino)-1-(6-(piperidin-4-yloxy)pyridin-2-yl)-1,2-dihydro-3H-pyrazolo[3,4-d]pyrimidin-3-one]
< 10	< 20	200 to 500	< 100	≤ 100	C=CCn1c(=O)c2cnc(Nc3ccc4nc(C)sc4c3)nc2n1-c1cccc(OC2CCN(C)CC2)n1 [Compound 260, 2-allyl-6-(2-methyl-1,3-benzothiazol-6-ylamino)-1-[6-(1-methyl-4-piperidyloxy)-2-pyridyl]-1,2-dihydro-3H-1,2,5,7-tetraazainden-3-one]
< 10	20 to 100	500 to 1000	< 100	≤ 100	C=CCn1c(=O)c2cnc(Nc3ccc(OCC)cc3)nc2n1-c1cccc(OC2CCNCC2)n1 [Compound 254, 2-allyl-6-((4-ethoxyphenyl)amino)-1-(6-(piperidin-4-yloxy)pyridin-2-yl)-1,2-dihydro-3H-pyrazolo[3,4-d]pyrimidin-3-one]
< 10	20 to 100	> 1000	100 to 500	≤ 100	C=CCn1c(=O)c2cnc(Nc3cccnc3)nc2n1-c1cccc(OC2CCN(C)CC2)n1 [Compound 229, 2-allyl-1-[6-(1-methyl-4-piperidyloxy)-2-pyridyl]-6-(3-pyridylamino)-1,2-dihydro-3H-1,2,5,7-tetraazainden-3-one]
< 10	< 20	> 1000	100 to 500	100 to 500	C=CCn1c(=O)c2cnc(Nc3ccc4c(cnn4C)c3)nc2n1-c1cccc(O[C@H]2CCNC2)n1 [Compound 100, 1-{6-[(S)-3-pyrrolidinyloxy]-2-pyridyl}-2-allyl-6-(1-methyl-1H-indazol-5-ylamino)-1,2-dihydro-3H-1,2,5,7-tetraazainden-3-one]
< 10	20 to 100	> 1000	< 100	≤ 100	C=CCn1c(=O)c2cnc(Nc3ccc(OCC(F)(F)F)cc3)nc2n1-c1ccnc(OC2CCN(C)CC2)n1 [Compound 253, 2-allyl-1-(2-((1-methylpiperidin-4-yl)oxy)pyrimidin-4-yl)-6-((4-(2,2,2-trifluoroethoxy)phenyl)amino)-1,2-dihydro-3H-pyrazolo[3,4-d]pyrimidin-3-one]
< 10	20 to 100	200 to 500	< 100	≤ 100	C=CCn1c(=O)c2cnc(Nc3ccc4[nH]ncc4c3)nc2n1-c1cccc(OC2CCN(C)CC2)n1 [Compound 238, 6-((1H-indazol-5-yl)amino)-2-allyl-1-(6-((1-methylpiperidin-4-yl)oxy)pyridin-2-yl)-1,2-dihydro-3H-pyrazolo[3,4-d]pyrimidin-3-one]
< 10	100 to 500	> 1000	< 100	≤ 100	C=CCn1c(=O)c2cnc(Nc3cnn(CC(C)C)c3)nc2n1-c1cccc(OC2CCN(C)CC2)n1 [Compound 200, 2-allyl-6-(1-isobutyl-4-pyrazolylamino)-1-[6-(1-methyl-4-piperidyloxy)-2-pyridyl]-1,2-dihydro-3H-1,2,5,7-tetraazainden-3-one]

Second part, the compound before the results:

SMILES	IC50 [1] [nM]	IC50 [2] [nM]	EC50 [3] [nM]	EC50 [4] [nM]	EC50 (ACHN cells) [nM]
C=CCn1c(=O)c2cnc(Nc3ccc4cnccc4c3)nc2n1-c1cccc(OC2CCNCC2)n1 [Compound 244, 2-allyl-6-(6-isoquinolylamino)-1-[6-(4-piperidyloxy)-2-pyridyl]-1,2-dihydro-3H-1,2,5,7-tetraazainden-3-one]	< 10	20 to 100	500 to 1000	< 100	100 to 500
C=CCn1c(=O)c2cnc(Nc3ccc(Cl)cc3)nc2n1-c1cccc(OC2CCNCC2)n1 [Compound 141, 2-allyl-6-((4-chlorophenyl)amino)-1-(6-(piperidin-4-yloxy)pyridin-2-yl)-1,2-dihydro-3H-pyrazolo[3,4-d]pyrimidin-3-one]	< 10	< 20	200 to 500	< 100	100 to 500
C=CCn1c(=O)c2cnc(Nc3ccc(N4CCOCC4)c(C)c3)nc2n1-c1cccc(OC2CCN(C)CC2)n1 [Compound 270, 2-allyl-1-[6-(1-methyl-4-piperidyloxy)-2-pyridyl]-6-(4-morpholino-3-toluidino)-1,2-dihydro-3H-1,2,5,7-tetraazainden-3-one]	< 10	< 20	< 200	< 100	≤ 100
C=CCn1c(=O)c2cnc(Nc3ccc4c(c3)ncn4C)nc2n1-c1cccc(OC2CCNCC2)n1 [Compound 319, 2-allyl-6-((1-methyl-1H-benzo[d]imidazol-5-yl)amino)-1-(6-(piperidin-4-yloxy)pyridin-2-yl)-1,2-dihydro-3H-pyrazolo[3,4-d]pyrimidin-3-one]	< 10	20 to 100	> 1000	100 to 500	500 to 1000
C=CCn1c(=O)c2cnc(Nc3ccc(Cl)cc3)nc2n1-c1cccc(NC2CCN(C)CC2)n1 [Compound 138, 2-allyl-6-((4-chlorophenyl)amino)-1-(6-((1-methylpiperidin-4-yl)amino)pyridin-2-yl)-1,2-dihydro-3H-pyrazolo[3,4-d]pyrimidin-3-one]	< 10	100 to 500	> 1000	< 100	≤ 100
C=CCn1c(=O)c2cnc(Nc3ccc4nn(C)cc4c3)nc2n1-c1cccc(OC2CCN(C)CC2)n1 [Compound 273, 2-allyl-6-((2-methyl-2H-indazol-5-yl)amino)-1-(6-((1-methylpiperidin-4-yl)oxy)pyridin-2-yl)-1,2-dihydro-3H-pyrazolo[3,4-d]pyrimidin-3-one]	< 10	< 20	< 200	< 100	≤ 100
C=CCn1c(=O)c2cnc(Nc3cnn(C(C)C)c3)nc2n1-c1cccc(OC2CCN(C)CC2)n1 [Compound 198, 2-allyl-6-(1-isopropyl-4-pyrazolylamino)-1-[6-(1-methyl-4-piperidyloxy)-2-pyridyl]-1,2-dihydro-3H-1,2,5,7-tetraazainden-3-one]	< 10	100 to 500	> 1000	< 100	≤ 100
